Experimental data from patent US10300042B2, “Apremilast for the treatment of a liver disease or a liver function abnormality” (Celgene Corporation, priority 2014, dated 2019).

Columns and labels:
[1] = system: PDE6; assay: PDE6 enzyme assay; assay type: biochemical; settings: at 10 μM
Procedure: (§1) PDE1, 2, 3 and 5 enzyme assays were prepared as described by Hidaka and Asano. Biochem. Biophys. Acta., 1976, 429:485; see also Nicholsen et al., Trends Pharmaco. Sci., 1991, 12:19. The PDE6 enzyme assay was prepared according to Baehr et al., J. Biol. Chem., 1979, 254:11669 and Gillespie et al., Mol. Pharm., 1989, 36: 773. The PDE7 enzyme assay was prepared according to Bloom and Beavo. Proc. Natl. Acad. Sci. USA, 1996, 93:14188-92.

[2] = system: patients with moderate to severe plaque psoriasis; assay: Pruritus in ESTEEM 1; assay type: in vivo, human; settings: Week 16, 30 mg BID
Procedure: Patients were randomized with Apremilast in an amount of 30 mg twice per day or placebo for the first 16 weeks, and from Weeks 16 to 32, all patients received Apremilast in an amount of 30 mg twice per day.

[3] = system: Alanine Aminotransferase; assay: ALT levels in PSA-005 (psoriatic arthritis); assay type: in vivo, human; settings: for ALT High to Normal, percent of patients / ALT Net Benefit / ALT Normal to High, percent of patients: end of treatment (week 24)
Text: (§2) Apremilast was studied in a Phase 3 trial in patients with active psoriatic arthritis who have not been previously treated with disease-modifying antirheumatic drugs. […] The improvement in mild baseline liver function test abnormalities has been observed with apremilast daily use without any prescribed changes in physical activity, social or dietary habits. […] See Tables 25 to 34 from PSA-005 studies.

[4] = system: PDE4; assay: PDE4 enzyme inhibition (enzyme purified from U937 human monocytic cells); assay type: biochemical; settings: 1 μM cAMP, 45 min at 30° C.
Procedure: Phosphodiesterase 4 enzyme was purified from U937 human monocytic cells by gel filtration chromatography, and phosphodiesterase reactions were carried out as previously described. See Muller et al., Bioorg. Med. Chem. Lett., 1998, 8(19): 2669-2674. Briefly, reactions were carried out in 96-well deep-well plates in 50 mM Tris HCl pH 7.5, 5 mM MgCl2, 1 μM cyclic adenosine monophosphate (cAMP), plus 10 nM [3H]-cAMP for 45 min at 30° C. The reactions were terminated by boiling, treated with 1 mg/ml snake venom, and separated using AG-1X8 ion exchange resin (BioRad). Reactions consumed less than 15% of available substrate.

[5] = system: PDE3; assay: PDE3 enzyme assay; assay type: biochemical; settings: at 10 μM
Procedure: as §1

[6] = system: TNF-α; assay: Inhibition of TNF-α production in PBMCs; assay type: cell-based; settings: PBMC
Text: The test methods were as described in WO 03/080049; Muller et al., J. Med. Chem., 1996, 39:3238; and Muller et al., Bioorg. Med. Chem. Lett., 1999, 9:1625-30.

[7] = system: Aspartate Aminotransferase; assay: AST levels in PSA-005 (psoriatic arthritis); assay type: in vivo, human; settings: for AST High to Normal, percent of patients / AST Net Benefit / AST Normal to High, percent of patients: end of treatment (week 24)
Text: as §2

[8] = Baseline High, Week 24, 20 mg BID
[9] = Baseline High, Week 24, 30 mg BID
[10] = Baseline Normal, Week 24, 20 mg BID
[11] = Baseline Normal, Week 24, 30 mg BID
[12] = Baseline Total, Week 24, 20 mg BID
[13] = Baseline Total, Week 24, 30 mg BID

CCOc1cc([C@@H](CS(C)(=O)=O)N2C(=O)c3cccc(NC(C)=O)c3C2=O)ccc1OC [Apremilast, (+)-2-[1-(3-ethoxy-4-methoxyphenyl)-2-methylsulfonylethyl]-4-acetylaminoisoindoline-1,3-dione]
% inhibition PDE6 [1]: −6% | Change in Pruritus Visual Analog Scale (mm ± SD) [2]: −31.5 (±32.43) mm | ALT High to Normal, percent of patients ([3]; 20 BID): 87.5% | ALT Net Benefit ([3]; 20 BID): 53.8% | ALT Normal to High, percent of patients ([3]; 20 BID): 3.3% | ALT High to Normal, percent of patients ([3]; 30 BID): 72.7% | ALT Net Benefit ([3]; 30 BID): 44.4% | ALT Normal to High, percent of patients ([3]; 30 BID): 4.9% | ALT High to Normal, Difference between Placebo and APR 30 BID ([3]; 30 BID, week 24): 22.7% | ALT Net Benefit, Difference between Placebo and APR 30 BID ([3]; 30 BID, week 24): 24.4% | ALT Normal to High, Difference between Placebo and APR 30 BID ([3]; 30 BID, week 24): −1.0% | ALT High to Normal, Difference between Placebo and APR 30 BID ([3]; 30 BID, week 24, listed as APR): 22.7% | ALT High, % of patients [3, 8]: 12.5% | ALT Low, % of patients [3, 8]: 0.0% | ALT Normal, % of patients [3, 8]: 87.5% | ALT High, % of patients [3, 9]: 27.3% | ALT Low, % of patients [3, 9]: 0.0% | ALT Normal, % of patients [3, 9]: 72.7% | ALT High, % of patients [3, 10]: 3.3% | ALT Low, % of patients [3, 10]: 0.0% | ALT Normal, % of patients [3, 10]: 96.7% | ALT High, % of patients [3, 11]: 4.9% | ALT Low, % of patients [3, 11]: 0.0% | ALT Normal, % of patients [3, 11]: 95.1% | ALT High, % of patients [3, 12]: 3.8% | ALT Low, % of patients [3, 12]: 0.0% | ALT Normal, % of patients [3, 12]: 96.2% | ALT High, % of patients [3, 13]: 6.5% | ALT Low, % of patients [3, 13]: 0.0% | ALT Normal, % of patients [3, 13]: 93.5% | Baseline High ALT: High % ([3]; Week 4, 20 mg BID): 30.0% | Baseline High ALT: Normal % ([3]; Week 4, 20 mg BID): 70.0% | Baseline High ALT: High % ([3]; Week 4, 30 mg BID): 72.7% | Baseline High ALT: Normal % ([3]; Week 4, 30 mg BID): 27.3% | Baseline High ALT: High % ([3]; Week 16, 20 mg BID): 12.5% | Baseline High ALT: Normal % ([3]; Week 16, 20 mg BID): 87.5% | Baseline High ALT: High % ([3]; Week 16, 30 mg BID): 36.4% | Baseline High ALT: Normal % ([3]; Week 16, 30 mg BID): 63.6% | Baseline High ALT: High % ([3]; Week 24, 20 mg BID): 12.5% | Baseline High ALT: Normal % ([3]; Week 24, 20 mg BID): 87.5% | Baseline High ALT: High % ([3]; Week 24, 30 mg BID): 27.3% | Baseline High ALT: Normal % ([3]; Week 24, 30 mg BID): 72.7% | IC50 [4]: 73.5 nM | % inhibition PDE3 [5]: 20% | IC50 [6]: 77 nM | AST High to Normal, percent of patients ([7]; 20 BID): 60.0% | AST Net Benefit ([7]; 20 BID): 37.5% | AST Normal to High, percent of patients ([7]; 20 BID): 2.0% | AST High to Normal, percent of patients ([7]; 30 BID): 75.0% | AST Net Benefit ([7]; 30 BID): 60.0% | AST Normal to High, percent of patients ([7]; 30 BID): 2.1% | AST High to Normal, Difference between Placebo and APR 30 BID ([7]; 30 BID, week 24): 25% | AST Net Benefit, Difference between Placebo and APR 30 BID ([7]; 30 BID, week 24): 35.0% | AST Normal to High, Difference between Placebo and APR 30 BID ([7]; 30 BID, week 24): −1.8% | AST High to Normal, Difference between Placebo and APR 30 BID ([7]; 30 BID, week 24, listed as APR): 25.0% | AST High, % of patients [7, 8]: 40.0% | AST Low, % of patients [7, 8]: 0.0% | AST Normal, % of patients [7, 8]: 60.0% | AST High, % of patients [7, 9]: 25.0% | AST Low, % of patients [7, 9]: 0.0% | AST Normal, % of patients [7, 9]: 75.0% | AST High, % of patients [7, 10]: 2.0% | AST Low, % of patients [7, 10]: 0.0% | AST Normal, % of patients [7, 10]: 98.0% | AST High, % of patients [7, 11]: 2.1% | AST Low, % of patients [7, 11]: 0.0% | AST Normal, % of patients [7, 11]: 97.9% | AST High, % of patients [7, 12]: 3.2% | AST Low, % of patients [7, 12]: 0.0% | AST Normal, % of patients [7, 12]: 96.8% | AST High, % of patients [7, 13]: 3.9% | AST Low, % of patients [7, 13]: 0.0% | AST Normal, % of patients [7, 13]: 96.1% | Baseline High AST: High % ([7]; Week 4, 20 mg BID): 71.4% | Baseline High AST: Normal % ([7]; Week 4, 20 mg BID): 28.6% | Baseline High AST: High % ([7]; Week 4, 30 mg BID): 50.0% | Baseline High AST: Normal % ([7]; Week 4, 30 mg BID): 50.0% | Baseline High AST: High % ([7]; Week 16, 20 mg BID): 20.0% | Baseline High AST: Normal % ([7]; Week 16, 20 mg BID): 80.0% | Baseline High AST: High % ([7]; Week 16, 30 mg BID): 41.7% | Baseline High AST: Normal % ([7]; Week 16, 30 mg BID): 58.3% | Baseline High AST: High % ([7]; Week 24, 20 mg BID): 40.0% | Baseline High AST: Normal % ([7]; Week 24, 20 mg BID): 60.0% | Baseline High AST: High % ([7]; Week 24, 30 mg BID): 25.0% | Baseline High AST: Normal % ([7]; Week 24, 30 mg BID): 75.0%
